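These data come from cells grown in 96-well plates and exposed to compound for 48 hours at five concentrations. At the GI50, growth is halved.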 Activity calls are given as the source filed them. No stated cut-off is given here; in the data, active = GI50 up to about 1.1 µM and inactive = higher.
What was measured:
Test in all cases: DTP human tumour cell line panel, 48 h
PC-3 = system: PC-3
CAKI-1 = system: CAKI-1
ACHN = system: ACHN
HT-29 = system: HT-29
NCI/ADR-RES = system: NCI/ADR-RES
HCT-15 = system: HCT-15
A549 = system: A549
OVCAR-4 = system: OVCAR-4
SNB-19 = system: SNB-19
SK-OV-3 = system: SK-OV-3
SF-268 = system: SF-268
UACC-62 = system: UACC-62
SR = system: SR
TK-10 = system: TK-10
OVCAR-5 = system: OVCAR-5
RPMI-8226 = system: RPMI-8226
NCI-H460 = system: NCI-H460
CCRF-CEM = system: CCRF-CEM
HCT-116 = system: HCT-116
SNB-75 = system: SNB-75

Measured: GI50

CCOC(=O)N1CCC2(CC1)C[C@](C)(C(C)=O)C(C)O2 (stereo not given in full)
> 100 µM: HCT-15
inactive: PC-3 > 100 µM | CAKI-1 > 100 µM | ACHN > 100 µM | HT-29 > 100 µM | NCI/ADR-RES > 100 µM | A549 > 100 µM | OVCAR-4 > 100 µM | SNB-19 > 100 µM | SK-OV-3 > 100 µM | SF-268 > 100 µM | UACC-62 > 100 µM | SR > 100 µM | TK-10 > 100 µM | OVCAR-5 > 100 µM | RPMI-8226 > 100 µM | NCI-H460 > 100 µM

CC1(C)C2CC1C(/C=N\OCC(=O)O)=CC2=O (stereo not given)
inactive: PC-3 > 100 µM | CAKI-1 > 100 µM | ACHN > 100 µM | CCRF-CEM > 100 µM | HT-29 > 100 µM | HCT-116 > 100 µM | NCI/ADR-RES > 100 µM | A549 > 100 µM | OVCAR-4 > 100 µM | SNB-19 > 100 µM | SK-OV-3 > 100 µM | SF-268 > 100 µM | UACC-62 > 100 µM | SR > 100 µM | TK-10 > 100 µM | OVCAR-5 > 100 µM | RPMI-8226 > 100 µM | NCI-H460 > 100 µM
> 100 µM: HCT-15

CCOC(=S)SC/C(=N\OC(C)(C)OC)c1ccccc1
32.5 µM: HCT-15
active: SNB-75 0.453 µM
inactive: PC-3 59.4 µM | CAKI-1 > 100 µM | ACHN 71.3 µM | CCRF-CEM 18.1 µM | HT-29 23 µM | HCT-116 24.9 µM | NCI/ADR-RES > 100 µM | A549 44.7 µM | OVCAR-4 69 µM | SNB-19 > 100 µM | SK-OV-3 43.7 µM | SF-268 56.9 µM | UACC-62 31.3 µM | SR 14.5 µM | TK-10 46.6 µM | OVCAR-5 40.4 µM | NCI-H460 35 µM

CCn1c2ccc(O)c(C(=O)OC)c2c2cc3ccccc3c(O)c21
15.3 µM: HCT-15
inactive: PC-3 20.8 µM | CAKI-1 13.4 µM | ACHN 12.6 µM | CCRF-CEM 19 µM | HT-29 18.5 µM | HCT-116 12.6 µM | NCI/ADR-RES 19.8 µM | A549 16.3 µM | OVCAR-4 18.1 µM | SNB-19 33 µM | SK-OV-3 10.5 µM | SF-268 16.3 µM | UACC-62 23.2 µM | SR 17.4 µM | TK-10 15.9 µM | OVCAR-5 32.3 µM | RPMI-8226 10.2 µM | NCI-H460 14.2 µM

CC1(C)CC23CC(C)(C)c4cccc(c42)OCc2ccc4ccc5ccc(nc5c4n2)COc2cccc1c23
inactive: PC-3 > 50 µM | CAKI-1 > 50 µM | ACHN > 50 µM | HT-29 > 50 µM | HCT-116 > 50 µM | NCI/ADR-RES > 50 µM | A549 > 50 µM | OVCAR-4 > 50 µM | SNB-19 > 5 µM | SK-OV-3 > 50 µM | SF-268 > 50 µM | UACC-62 > 50 µM | SR > 50 µM | TK-10 > 50 µM | SNB-75 > 50 µM | OVCAR-5 > 50 µM | RPMI-8226 > 50 µM | NCI-H460 > 50 µM
> 50 µM: HCT-15

Nc1ccc(Oc2ccc(C34CC5CC6C3CC3CC4C(C5)C6(c4ccc(Oc5ccc(N)c(O)c5)cc4)C3)cc2)cc1O
inactive: PC-3 1.66 µM | CAKI-1 4.5 µM | ACHN 2.44 µM | CCRF-CEM 3.33 µM | HT-29 3.59 µM | HCT-116 1.31 µM | NCI/ADR-RES 3.1 µM | A549 1.9 µM | OVCAR-4 4.27 µM | SNB-19 3.57 µM | SK-OV-3 10.1 µM | SF-268 3.33 µM | UACC-62 10.1 µM | SR 1.62 µM | TK-10 4.92 µM | OVCAR-5 2 µM | RPMI-8226 1.93 µM | NCI-H460 3.56 µM
3.44 µM: HCT-15

COc1cc(C(c2ccc3c(c2)OCO3)N2C(=O)CCC2C(=O)O)cc(OC)c1OC (stereo not given)
> 100 µM: HCT-15
inactive: PC-3 > 100 µM | CAKI-1 > 100 µM | ACHN > 100 µM | CCRF-CEM > 100 µM | HT-29 > 100 µM | HCT-116 > 100 µM | NCI/ADR-RES > 100 µM | A549 > 100 µM | OVCAR-4 > 100 µM | SNB-19 > 100 µM | SK-OV-3 > 100 µM | SF-268 > 100 µM | UACC-62 > 100 µM | TK-10 > 100 µM | SNB-75 > 100 µM | OVCAR-5 > 100 µM | RPMI-8226 > 100 µM | NCI-H460 > 100 µM

COC(=O)Oc1nn(C(=O)OC)c(=O)c2ccccc12
> 100 µM: HCT-15
inactive: PC-3 > 100 µM | CAKI-1 > 100 µM | ACHN > 100 µM | CCRF-CEM > 100 µM | HCT-116 > 100 µM | NCI/ADR-RES > 100 µM | A549 > 100 µM | SNB-19 > 100 µM | SK-OV-3 > 100 µM | SF-268 > 100 µM | UACC-62 > 100 µM | SR > 100 µM | TK-10 > 100 µM | SNB-75 54.5 µM | OVCAR-5 > 100 µM | RPMI-8226 > 100 µM

COc1ccc(-n2c3c(c4c(CN(C)C)c(O)ccc42)C(=O)c2ccccc2C3=O)cc1
inactive: PC-3 13 µM | CAKI-1 14.2 µM | ACHN 2.17 µM | CCRF-CEM 2.99 µM | HT-29 2.19 µM | HCT-116 1.68 µM | NCI/ADR-RES 5.73 µM | A549 4.68 µM | OVCAR-4 2.37 µM | SNB-19 4.4 µM | SK-OV-3 2.48 µM | SF-268 10.1 µM | UACC-62 4.41 µM | SR 2.45 µM | TK-10 17.6 µM | OVCAR-5 4.92 µM | RPMI-8226 2.17 µM | NCI-H460 4.24 µM
3.1 µM: HCT-15

COC(=O)C1(NC(=O)C(CC(=O)OCc2ccccc2)NC(=O)OCc2ccccc2)CCCCCC1 (stereo not given)
38.1 µM: HCT-15
inactive: PC-3 28.6 µM | CAKI-1 20.8 µM | ACHN 34 µM | HT-29 22 µM | HCT-116 31 µM | NCI/ADR-RES 21 µM | A549 32.8 µM | OVCAR-4 14.1 µM | SNB-19 51.8 µM | SK-OV-3 35.4 µM | SF-268 42 µM | UACC-62 16.4 µM | SR 18.4 µM | TK-10 67.8 µM | SNB-75 35.1 µM | OVCAR-5 39.2 µM | RPMI-8226 3.93 µM | NCI-H460 34.8 µM

O=c1[nH]c2ccc(CC(=S)N3CCOCC3)cc2o1
inactive: PC-3 > 100 µM | CAKI-1 > 100 µM | ACHN > 100 µM | CCRF-CEM 89.9 µM | HT-29 > 100 µM | HCT-116 > 100 µM | NCI/ADR-RES > 100 µM | SK-OV-3 > 100 µM | SF-268 > 100 µM | UACC-62 > 100 µM | SR 56.6 µM | TK-10 > 100 µM | SNB-75 > 100 µM | OVCAR-5 > 100 µM | NCI-H460 > 100 µM
> 100 µM: HCT-15

N/C(=N\c1ccc(Cl)cc1)NS(=O)(=O)c1cccc2nsnc12
inactive: PC-3 17.4 µM | ACHN 30.3 µM | HT-29 55.6 µM | HCT-116 31.8 µM | NCI/ADR-RES 31.3 µM | A549 52.1 µM | OVCAR-4 15.2 µM | SNB-19 72.8 µM | SK-OV-3 74.8 µM | SF-268 26.8 µM | UACC-62 17 µM | SR 33 µM | TK-10 22.3 µM | SNB-75 > 100 µM | OVCAR-5 55.7 µM | RPMI-8226 33.8 µM | NCI-H460 19.1 µM
30.3 µM: HCT-15

CC(=O)c1c2n(n(-c3ccccc3)c1=O)C(=O)c1nccnc1-2
inactive: PC-3 > 100 µM | CAKI-1 > 100 µM | ACHN > 100 µM | HT-29 > 100 µM | HCT-116 > 100 µM | NCI/ADR-RES > 100 µM | A549 > 100 µM | OVCAR-4 > 100 µM | SNB-19 > 100 µM | SK-OV-3 > 100 µM | SF-268 > 100 µM | UACC-62 > 100 µM | SR > 100 µM | SNB-75 54.1 µM | OVCAR-5 > 100 µM | RPMI-8226 > 100 µM | NCI-H460 > 100 µM
> 100 µM: HCT-15

CSc1nc(Nc2cccc(C(F)(F)F)c2)c2c(N)nn(C)c2n1
inactive: PC-3 > 100 µM | CAKI-1 > 100 µM | ACHN > 100 µM | CCRF-CEM 38.1 µM | HT-29 51.9 µM | HCT-116 > 100 µM | NCI/ADR-RES 85.3 µM | A549 43.6 µM | OVCAR-4 > 100 µM | SNB-19 > 100 µM | SK-OV-3 > 100 µM | SF-268 > 100 µM | UACC-62 > 100 µM | TK-10 > 100 µM | SNB-75 81.3 µM | OVCAR-5 > 100 µM | RPMI-8226 > 100 µM | NCI-H460 50.9 µM
> 100 µM: HCT-15

CC(C)(O)/C=C\P(=O)(O)O
> 100 µM: HCT-15
inactive: PC-3 > 100 µM | CAKI-1 > 100 µM | ACHN > 100 µM | HT-29 > 100 µM | HCT-116 > 100 µM | NCI/ADR-RES > 100 µM | A549 > 100 µM | OVCAR-4 > 100 µM | SNB-19 > 100 µM | SK-OV-3 > 100 µM | SF-268 > 100 µM | UACC-62 > 100 µM | SR > 100 µM | TK-10 > 100 µM | SNB-75 > 100 µM | OVCAR-5 > 100 µM | NCI-H460 > 100 µM

From ChEMBL document CHEMBL1201862, “PubChem BioAssay data set” (2004)
